Reference: US12578271B2, “Gram-stain differentiation with nonlinear light scattering” (Temple University—Of The Commonwealth System of Higher …, priority 2020, dated 2026)

Tests used:
[1] = system: E. coli (mc4100 strain); assay: time-resolved second-harmonic scattering (SHS) of dye uptake by living bacteria, Gram-negative; type: cell-based
Description: (§1) Discrete colonies of E. coli (mc4100 strain) and L. rhamnosus ([…] strain) were grown on Luria Broth agar (Sigma-Aldrich) plates. Experimental samples, prepared from single colonies, were cultured (37° C., 150 rpm shaking) in Terrific Broth (TB, Sigma-Aldrich) to late-log/early stationary phase. Samples were lightly pelletized by centrifugation (ca. 1500 g for 2 min) and washed in 1×PBS to remove waste and residual TB. […] Final sample concentrations were maintained at 10 μM (MG) and 50 μM (CV). The 800 nm output from a Ti:sapphire laser (Coherent, […], oscillator only, 50 fs pulse duration, 4 nJ pulse energy, 76 MHz repetition rate, 0.4 W average power) was used as a fundamental light source. As depicted in FIG. 2A, SHS was measured while the sample circulated through a liquid flow system. To ensure collection of the SH signal solely from the sample, a long-pass filter (Schott, RG695) was placed in front of the focusing lens immediately before the sample jet. […] The signal was then detected by a photomultiplier (Hamamatsu, […]), amplified (Stanford Research Systems, SR440), and processed through a correlated photon counting system (Stanford Research Systems, SRS SR400). As a means of separating the surface specific SH response from the hyper-Rayleigh scattering (HRS) of the bulk dye solution, SHS was first measured from the dye solution in the absence of cells. […] To ensure rapid mixing of the suspension, in addition to circulating through the system, the contents of the sample reservoir were continuously stirred.

[2] = system: L. rhamnosus (R0011 strain); assay: time-resolved second-harmonic scattering (SHS) of dye uptake by living bacteria, Gram-positive; type: cell-based, Lactobacillus (L.) rhamnosus
Description: as §1

[3] = system: E. coli (mc4100 strain); conditions: prior SHS studies, living E. coli; cited from earlier work
[4] = pH=7.2; cited from earlier work
[5] = E. coli added ca. 10 s, 10 μM MG, 50 μM CV, FIG. 2B

Compound | time of onset of second rise of SHS signal (dye has diffused across PM and adsorbs onto outer surface of CM) [1, 5] | time until which second rise of SHS signal continues to grow, then stable plateau ([1]; E. coli added ca. 10 s, 50 μM CV, FIG. 2B) | late time SHS signal relative to HRS baseline ([1]; Gram-negative cells, 50 μM CV, FIG. 4) | fraction of CV from the bulk extracellular solution drawn into the Gram-positive cells ([2]; 50 μM CV) | reduction of the HRS background ([2]; 50 μM CV, after fast transport event, observation time 2000+ s, FIG. 4) | removal of CV from the bulk solution ([2]; 50 μM CV, inferred from reduction of HRS background) | late time SHS signal relative to HRS baseline ([2]; Gram-positive cells, 50 μM CV, FIG. 4) | second rise of SHS signal (arrival at CM) ([2]; within the 2000+ s observation time, also at higher concentrations) | ability to cross bacterial membranes (OM, CM) [3] | fraction of molecules that are cationic [4] | time of second decay of SHS signal (dye crosses the CM) ([1]; E. coli added ca. 10 s, 10 μM MG, FIG. 2B) | MG uptake kinetics compared with E. coli ([2]; 10 μM MG, FIG. 6) | fraction of molecules in solution that are neutral [4]
CN(C)c1ccc(C(=C2C=CC(=[N+](C)C)C=C2)c2ccc(N(C)C)cc2)cc1 [CV, crystal violet] | roughly 70 s | about 400 s | positive response | ca. 30% | 30% | ca. 15 μM | negative response | no second rise of SHS signal is ever observed | unable to cross the bacterial CM | 100% | – | – | –
CN(C)c1ccc(C(=C2C=CC(=[N+](C)C)C=C2)c2ccccc2)cc1 [MG, malachite green] | around 25 s | – | – | – | – | – | – | – | cross both the OM and CM | – | ~120 s | nearly identical transport curves | more than 50%
